Test results as given in patent US20250236789A1, “SECOND NEAR-INFRARED ORGANIC FLUORESCENT PROBE, PREPARATION METHOD AND USE THEREOF” (INNER MONGOLIA UNIVERSITY, priority 2024, published 2025).

Tests used:
[1] = NIR-II fluorescence imaging of aqueous solutions in PE tubes under excitation of white light; format: physicochemical; conditions: aqueous solution, 10 μmol·L^−1
Excerpt: Using NIR-II small animal imager, the PE tubes filled with the same concentration of nano-imaging probes were imaged at a test concentration of 10 μmol·L^−1.

[2] = Emission spectrum test in aqueous solution under excitation of white light; format: physicochemical; conditions: 10 μmol·L^−1, white light excitation
Protocol: (3) Emission spectrum test of fluorescent probe coated nanoparticles: The emission spectra of HY6CT-NPs, FY6CT-NPs and CY6CT-NPs in aqueous solution were tested with steady-state transient fluorescence spectrometer, at a test concentration of 10 μmol·L^−1.

NIR-II fluorescence signal under excitation of white light (in words) [1]: could not detect fluorescence signals
emission spectrum under white light (in words) [2]: can hardly be detected
Structure (SMILES): CC1(C)C(/C=C/C=C/C=C/C=C2\N(CCCCS(=O)(=O)[O-])c3ccc4ccccc4c3C2(C)C)=[N+](CCCCS(=O)(=O)[O-])c2ccc3ccccc3c21.[Na+] [ICG]
